# From ChEMBL document CHEMBL5365456, “Isolation and biological activity of natural chalcones based on antibacterial mechanism classification” (Bioorg Med Chem, 2023)
# How the values were obtained:
# [1] = system: Escherichia coli; assay: Antibiofilm activity against Escherichia coli 0157:H7 at 6.25 uM incubated for 24 hr by crystal violet staining based assay relative to control; format: functional
# [2] = Inhibition of Escherichia coli 0157:H7 AI-2 incubated for 3.5 hrs in dark condition by microplate reader analysis
# [3] = system: Escherichia coli; assay: Antibiofilm activity against Escherichia coli 0157:H7 at 200 uM incubated for 24 hr by crystal violet staining based assay relative to control; format: functional
# [4] = system: Staphylococcus aureus; assay: Antibacterial activity against Staphylococcus aureus MSSA1 assessed bacterial growth inhibition by CLSI-based broth microdilution method; format: functional
# [5] = system: Staphylococcus aureus; assay: Antibiofilm activity against Staphylococcus aureus BAA44 incubated for 24 hr by crystal violet staining based assay; format: functional
# [6] = system: Staphylococcus aureus; assay: Antibiofilm activity against Staphylococcus aureus BAA44 at 0.78 ug/ml incubated for 24 hr by crystal violet staining based assay relative to control; format: functional
# [7] = system: Staphylococcus aureus; assay: Antibiofilm activity against Staphylococcus aureus 6538 incubated for 24 hr by crystal violet staining based assay; format: functional
# [8] = system: Bacillus subtilis; assay: Bactericidal activity against Bacillus subtilis as by CLSI-based micro broth dilution method; format: functional
# [9] = system: Staphylococcus aureus; assay: Antibiofilm activity against Staphylococcus aureus 6538 at 0.78 ug/ml incubated for 24 hr by crystal violet staining based assay relative to control; format: functional
# [10] = system: Staphylococcus aureus; assay: Antibacterial activity against Staphylococcus aureus ATCC 29213 assessed as bacterial growth inhibition incubated for 18 hrs by CLSI-based broth microdilution method; format: functional
# [11] = system: Clostridioides difficile; assay: Antibacterial activity against Clostridium difficile ATCC 43255 assessed as bacterial growth inhibition incubated for 24 hrs by two-fold serial dilution method; format: functional
# [12] = Inhibition of His-tagged Escherichia coli ANS1 Fab1 using trans-2-octanoyl-N-acetylcysteamine as substrate by spectrometric analysis
# [13] = Inhibition of FAS1 in Mycobacterium smegmatis mc2 155 transfected with pVV16 vector expressing Rv0636 by BCA assay; parameters: species or system Mycolicibacterium smegmatis
# [14] = system: Staphylococcus xylosus; assay: Inhibition of Staphylococcus xylosus ATCC 700404 IGPD at 40 ug/ml relative to control; details: dose 40.0 µg/ml
# [15] = Inhibition of FAS2 in Mycobacterium smegmatis mc2 155 transfected with pVV16 vector by BCA assay; parameters: species or system Mycolicibacterium smegmatis
# [16] = system: Escherichia coli; assay: Antibacterial activity against Escherichia coli ANS1 assessed as bacterial growth inhibition incubated for 20 hrs by broth microdilution method; format: functional
# [17] = system: Staphylococcus xylosus; assay: Antibacterial activity against Staphylococcus xylosus ATCC 700404 assessed bacterial growth inhibition incubated for 24 hrs by Broth microdilution method; format: functional
# [18] = Inhibition of FAS2 in Mycobacterium smegmatis mc2 155 transfected with pVV16 vector expressing Rv0636 by BCA assay; parameters: species or system Mycolicibacterium smegmatis
# [19] = Inhibition of His-tagged Escherichia coli ANS1 FabG using acetoacetyl-CoA as substrate by spectrometric analysis
# [20] = system: Staphylococcus xylosus; assay: Antibiofilm activity against Staphylococcus xylosus ATCC 700404 at 20 ug/ml incubated for 24 hr by crystal violet staining based assay relative to control; format: functional
# [21] = Inhibition of FAS1 in Mycobacterium smegmatis mc2 155 transfected with pVV16 vector by BCA assay; parameters: species or system Mycolicibacterium smegmatis
# [22] = system: Cutibacterium acnes; assay: Antibacterial activity against Propionibacterium acnes KCTC5527 assessed as bacterial growth inhibition incubated for 48 hrs by broth microdilution assay; format: functional
# [23] = system: Staphylococcus aureus; assay: Antibacterial activity against Staphylococcus aureus BAA 1707 assessed as bacterial growth inhibition by CLSI-based broth micro-dilution method; format: functional
# [24] = system: Mycobacterium tuberculosis; assay: Antitubercular activity against Mycobacterium tuberculosis H37Rv assessed as bacterial growth inhibition measured for 9 days; format: functional; details: 216 h, time 9 day
# [25] = target: T1, Sortase B (Staphylococcus aureus, UniProt Q2FZE3); assay: Inhibition of Staphylococcus aureus sortase b transpeptidation expressed in Escherichia coli BL21 (DE3) cells using Fluorescent peptide as substrate at 16 ug/ml preincubated for 30 mins followed by substrate addition and measured for 1 hr by FRET assay
# T1 sequence (Q2FZE3 whole entry): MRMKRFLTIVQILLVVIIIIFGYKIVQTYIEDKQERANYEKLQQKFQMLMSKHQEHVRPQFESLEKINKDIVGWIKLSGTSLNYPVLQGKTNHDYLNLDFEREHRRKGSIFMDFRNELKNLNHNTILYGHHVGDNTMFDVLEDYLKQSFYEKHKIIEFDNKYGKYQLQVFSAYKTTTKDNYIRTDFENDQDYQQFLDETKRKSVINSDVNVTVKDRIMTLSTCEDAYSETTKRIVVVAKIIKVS
# [26] = system: Staphylococcus aureus; assay: Antibacterial activity against Staphylococcus aureus Newman assessed as bacterial growth inhibition by CLSI-based broth micro-dilution method; format: functional
# [27] = system: Candida albicans; assay: Antibiofilm activity against Candida albicans ATCC SC5314 at 74.55 ug/ml incubated for 24 hr by crystal violet staining based assay relative to control; format: functional
# [28] = system: Staphylococcus aureus; assay: Antibiofilm activity against Staphylococcus aureus SA1199B incubated for 18 to 24 hrs by broth microdilution method; format: functional; details: time 18-24 hrs
# [29] = system: Pectobacterium brasiliense; assay: Antibiofilm activity against Pectobacterium brasiliense Pb1692 at 0.4 ug/ml incubated for 72 hr by crystal violet staining based assay relative to control; format: functional
# [30] = system: Micrococcus luteus; assay: Antibacterial activity against Micrococcus luteus assessed bacterial growth inhibition by CLSI-based micro broth dilution method; format: functional
# [31] = system: Staphylococcus aureus; assay: Inhibition of Staphylococcus aureus ATCC 6538 LDH at 7.81 ug/ml relative to control; details: dose 7.81 µg/ml
# [32] = system: Cutibacterium acnes; assay: Antibacterial activity against Propionibacterium acnes KCTC3314 assessed as bacterial growth inhibition incubated for 48 hrs by broth microdilution assay; format: functional
# [33] = system: Mycobacterium tuberculosis; assay: Antitubercular activity against XDR Mycobacterium tuberculosis X59 assessed as bacterial growth inhibition measured for 9 days; format: functional; details: X59, 216 h, time 9 day
# [34] = system: Candida albicans; assay: Antifungal activity against Candida albicans SC5314 assessed as fungal growth inhibition incubated for 48 hrs by CLSI protocol based assay; format: functional
# [35] = system: Candida albicans; assay: Inhibition of Candida albicans SC5314 hyphal transition at 74.55 ug/ml incubated for 24 hrs relative to control; format: functional
# [36] = system: Cutibacterium acnes; assay: Antibacterial activity against Propionibacterium acnes KCTC3220 assessed as bacterial growth inhibition incubated for 48 hrs by broth microdilution assay; format: functional
# [37] = system: Escherichia coli; assay: Antibiofilm activity against Escherichia coli 0157:H7 at 25 ug/ml incubated for 10 hrs by crystal violet staining based assay relative to control; format: functional
# [38] = system: Staphylococcus aureus; assay: Antibacterial activity against Staphylococcus aureus ATCC 25923 assessed as bacterial growth inhibition by CLSI-based broth micro-dilution method; format: functional
# [39] = system: Staphylococcus aureus; assay: Inhibition of Staphylococcus aureus ATCC 6538 Catalase at 7.81 ug/ml relative to control; details: dose 7.81 µg/ml
# [40] = system: Staphylococcus aureus; assay: Antibacterial activity against Staphylococcus aureus ATCC 29213 assessed as bacterial growth inhibition by CLSI-based broth micro-dilution method; format: functional
# [41] = system: Staphylococcus aureus; assay: Antibiofilm activity against Staphylococcus aureus SA1199B at 128 ug/ml incubated for 18 to 24 hrs by broth microdilution method relative to control; format: functional; details: time 18-24 hrs
# [42] = system: Mycobacterium tuberculosis; assay: Antitubercular activity against XDR Mycobacterium tuberculosis X24 assessed as bacterial growth inhibition measured for 9 days; format: functional; details: X24, 216 h, time 9 day
# [43] = system: Staphylococcus aureus; assay: Inhibition of Staphylococcus aureus ATCC 6538 IDH at 7.81 ug/ml relative to control; details: dose 7.81 µg/ml
# [44] = system: Staphylococcus aureus; assay: Antibacterial activity against Staphylococcus aureus BAA 1717 assessed as bacterial growth inhibition by CLSI-based broth micro-dilution method; format: functional
# [45] = system: Staphylococcus aureus; assay: Antibacterial activity against Staphylococcus aureus 8325-4 assessed as bacterial growth inhibition by CLSI-based broth micro-dilution method; format: functional
# [46] = system: Klebsiella pneumoniae; assay: Antibacterial activity against Klebsiella pneumoniae assessed bacterial growth inhibition by CLSI-based micro broth dilution method; format: functional
# [47] = system: Streptococcus pyogenes; assay: Antibiofilm activity against Streptococcus pyogenes ATCC 19615 at 23.4 ug/ml incubated for 1 hr by crystal violet staining based assay relative to control; format: functional; details: dose 23.4 µg/ml
# [48] = system: Staphylococcus aureus; assay: Antibiofilm activity against Staphylococcus aureus RN4220 at 8 to 256 ug/ml incubated for 18 to 24 hrs by broth microdilution method relative to control; format: functional; details: dose 8-256 µg/ml; time 18-24 hrs; at 8 to 256 µg/mL
# [49] = system: Streptococcus pyogenes; assay: Antibacterial activity against Streptococcus pyogenes ATCC 19615 assessed bacterial growth inhibition incubated for 24 hrs by double dilution method; format: functional
# [50] = system: Cutibacterium acnes; assay: Antibacterial activity against Propionibacterium acnes KCTC5933 assessed as bacterial growth inhibition incubated for 48 hrs by broth microdilution assay; format: functional
# [51] = system: Staphylococcus aureus; assay: Antibiofilm activity against Staphylococcus aureus RN4220 at 1 ug/ml incubated for 18 to 24 hrs by broth microdilution method relative to control; format: functional; details: time 18-24 hrs
# [52] = system: Staphylococcus aureus; assay: Antibiofilm activity against Staphylococcus aureus RN4220 incubated for 18 to 24 hrs by broth microdilution method; format: functional; details: time 18-24 hrs
# [53] = system: Escherichia coli; assay: Antibiofilm activity against Escherichia coli 0157:H7 at 50 ug/ml incubated for 10 hrs by crystal violet staining based assay relative to control; format: functional
# [54] = system: Candida albicans; assay: Antifungal activity against Candida albicans SC5314 assessed as fungal growth inhibition incubated for 48 hrs by CLSI-based two-fold serial dilution method; format: functional
# [55] = system: Staphylococcus aureus; assay: Antibacterial activity against Staphylococcus aureus ATCC 6538 assessed bacterial growth inhibition incubated for 24 hrs by CLSI-based broth dilution method; format: functional
# [56] = system: Listeria monocytogenes; assay: Antibiofilm activity against Listeria monocytogenes CMCC 54004 at 20 ug/ml by crystal violet staining based assay relative to control; format: functional
smiles,measurement,setting,value
COc1cc(O)ccc1/C=C/C(=O)c1ccc(O)cc1 [ECHINATIN],inhibition at 6.25 µM,[1],40%
same,IC50,[2],21.7 µM
same,inhibition at 200 µM,[3],71.5%
CC(C)=CCc1c(O)ccc(C(=O)/C=C/c2ccc(O)cc2)c1O [ISOBAVACHALCONE],MIC,[4],0.5 µg/mL
same,MBIC,[5],0.78 µg/mL
same,inhibition at 0.78 µg/mL,[6],80%
same,MBIC,[7],0.78 µg/mL
same,MBC,[8],4 µg/mL
same,inhibition at 0.78 µg/mL,[9],75%
same,MIC,[10],4 µg/mL
same,MIC,[11],4 µg/mL
O=C(/C=C/c1ccc(O)cc1)c1ccc(O)cc1O [ISOLIQUIRITIGENIN],IC50,[12],40 µM
same,IC50,[13],96 µg/mL
same,inhibition,[14],60%
same,IC50,[15],7 µg/mL
same,MIC,[16],25 µM
same,MIC,[17],80 µg/mL
same,IC50,[18],17 µg/mL
same,IC50,[19],20 µM
same,inhibition at 20 µg/mL,[20],45%
same,IC50,[21],96 µg/mL
O=C(CCc1ccc(O)cc1)c1c(O)cc(O)cc1O [PHLORETIN],MIC,[22],16 µM
same,MIC,[23],128 µg/mL
same,MIC90,[24],182 µM
same,IC50,[25],35.5 µM
same,MIC,[26],128 µg/mL
same,inhibition at 74.55 µg/mL,[27],76%
same,MBIC50,[28],256 µg/mL
same,inhibition at 0.4 µg/mL,[29],> 60%
same,MIC50,[30],230 µM
same,inhibition,[31],20%
same,MIC,[32],16 µM
same,MIC90,[33],182 µM
same,MIC,[34],74.5 µg/mL
same,inhibition at 74.55 µg/mL,[35],80%
same,MIC,[36],16 µM
same,inhibition at 25 µg/mL,[37],89%
same,MIC,[38],128 µg/mL
same,inhibition,[39],30%
same,MIC,[40],128 µg/mL
same,inhibition at 128 µg/mL,[41],≥ 50%
same,MIC90,[42],182 µM
same,inhibition,[43],60%
same,MIC,[44],128 µg/mL
same,MIC,[45],128 µg/mL
same,MIC50,[46],410 µM
same,inhibition (INH),[47],46.4%
same,inhibition (INH),[48],>70%
same,MIC,[49],46.8 µg/mL
same,MIC,[50],16 µM
same,inhibition at 1 µg/mL,[51],60%
same,IC50,[2],62.5 µM
same,MBIC50,[52],1 µg/mL
same,inhibition at 50 µg/mL,[53],93%
same,MIC,[54],74.5 µg/mL
same,MIC,[55],7.81 µg/mL
same,inhibition at 20 µg/mL,[56],60%
